As a reminder, the inhibition in vivo is the change of the read-out against control, counted positive when it falls.

This note sets out measurements from ChEMBL document CHEMBL3046783, “Synthesis of pyrimidine and condensed pyrimidine derivatives and their evaluation for anti-inflammatory activity” (2012).

The test concerns Rattus norvegicus. As to the kind of experiment: Anti-inflammatory activity in Rattus norvegicus albino (rat) assessed as inhibition of carrageenan-induced paw edema at 50 mg/kg, po administered 30 min before carrageenan challenge measured after 1 to 3 hr by plethysmometer analysis. The format is functional.
`CC1CC(O)N(CC2CCCO2)C(=S)N1` (stereo not given): the inhibition in vivo at 50 mg/kg worked out at 18%. Then `Cc1cccc2c1N1C(=S)NC(C)CC1N2` (stereo not given), with 0%; and `CC1=CC(C)(C)NC(=S)N1c1cc(Br)ccc1N`, with 31%; and `CC1=CC(C)(C)NC(=S)N1Cc1ccncc1`, with 25%. With `CC1(C)CC(C)(O)N(CCN2CCCC2)C(=S)N1` (stereo not given), the inhibition in vivo at 50 mg/kg worked out at 8%.

Take `CC1=CC(C)(C)NC(=S)N1c1cc(C#N)ccc1N`: the inhibition in vivo at 50 mg/kg was 32%. Under `CC1=CC(C)(C)NC(=S)N1CC1CCCO1` (stereo not given) stands 18%; under `CC(C)Cc1ccc(C(C)C(=O)O)cc1` (stereo not given) [IBUPROFEN], 39%; under `CC1CC2Nc3ccc(Br)cc3N2C(=S)N1` (stereo not given), 27%. Under `CC1C=CN(CCc2c[nH]c3ccccc23)C(=S)N1` (stereo not given) stands 25%; under `CC1(C)CC2(C)Nc3ccc(Br)cc3N2C(=S)N1` (stereo not given), 24%. Regarding `CC1CC(O)N(CCN2CCCC2)C(=S)N1` (stereo not given), the inhibition in vivo at 50 mg/kg is 30%. Under `CC1=CC(C)(C)NC(=S)N1CCc1c[nH]c2ccccc12` stands 30%; under `CC1(C)CC(C)(O)N(Cc2ccncc2)C(=S)N1` (stereo not given), 27%. On to `CC1CC(O)N(Cc2ccncc2)C(=S)N1` (stereo not given), for which the inhibition in vivo at 50 mg/kg worked out at 30%.

In the case of `CC1=CC(C)(C)NC(=S)N1c1cc(C)ccc1O`, the inhibition in vivo at 50 mg/kg amounted to 27%. Under `CC1(C)CC2(C)Nc3ccc(C#N)cc3N2C(=S)N1` (stereo not given) stands 39%. Then `CC1(C)CC(C)(O)N(CCN2CCOCC2)C(=S)N1` (stereo not given), with 35%. In the case of `CC1CC(O)N(CCN2CCOCC2)C(=S)N1` (stereo not given), the inhibition in vivo at 50 mg/kg is 38%.

Consider `CC1CC(O)N(CCN2CCCCC2)C(=S)N1` (stereo not given), for which the inhibition in vivo at 50 mg/kg came out at 29%.
